From ChEMBL document CHEMBL1201862, “PubChem BioAssay data set” (2004)
Active and inactive are the calls of the source.

Key:
Assay type in all cases: functional
[1] = molecular target: T1, Dual specificity protein phosphatase 6 (Rattus norvegicus, UniProt Q64346);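 note: confirmatory in vitro dose-response testing of MKP-3 inhibition; recombinant His-tagged MKP-3 made in E. coli BL21 with OMFP substrate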
T1 sequence (Q64346 whole entry): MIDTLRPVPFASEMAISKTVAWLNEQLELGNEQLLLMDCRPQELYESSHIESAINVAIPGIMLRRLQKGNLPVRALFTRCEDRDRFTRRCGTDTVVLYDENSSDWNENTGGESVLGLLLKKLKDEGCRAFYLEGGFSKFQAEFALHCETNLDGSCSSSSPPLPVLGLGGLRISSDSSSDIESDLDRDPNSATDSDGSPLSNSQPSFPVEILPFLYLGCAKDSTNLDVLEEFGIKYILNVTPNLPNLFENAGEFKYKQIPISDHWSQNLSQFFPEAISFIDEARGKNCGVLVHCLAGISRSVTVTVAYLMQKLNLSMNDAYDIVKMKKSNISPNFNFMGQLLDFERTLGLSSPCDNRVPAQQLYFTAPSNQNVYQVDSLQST

[2] = molecular target: T2, Tyrosine-protein phosphatase non-receptor type 22 (Homo sapiens, UniProt Q9Y2R2); assay: lymphoid phosphatase LYP inhibitors – biochemical, selectivity assay for STEP inhibitor project, dose response (AID 624241)
T2 sequence (Q9Y2R2 whole entry): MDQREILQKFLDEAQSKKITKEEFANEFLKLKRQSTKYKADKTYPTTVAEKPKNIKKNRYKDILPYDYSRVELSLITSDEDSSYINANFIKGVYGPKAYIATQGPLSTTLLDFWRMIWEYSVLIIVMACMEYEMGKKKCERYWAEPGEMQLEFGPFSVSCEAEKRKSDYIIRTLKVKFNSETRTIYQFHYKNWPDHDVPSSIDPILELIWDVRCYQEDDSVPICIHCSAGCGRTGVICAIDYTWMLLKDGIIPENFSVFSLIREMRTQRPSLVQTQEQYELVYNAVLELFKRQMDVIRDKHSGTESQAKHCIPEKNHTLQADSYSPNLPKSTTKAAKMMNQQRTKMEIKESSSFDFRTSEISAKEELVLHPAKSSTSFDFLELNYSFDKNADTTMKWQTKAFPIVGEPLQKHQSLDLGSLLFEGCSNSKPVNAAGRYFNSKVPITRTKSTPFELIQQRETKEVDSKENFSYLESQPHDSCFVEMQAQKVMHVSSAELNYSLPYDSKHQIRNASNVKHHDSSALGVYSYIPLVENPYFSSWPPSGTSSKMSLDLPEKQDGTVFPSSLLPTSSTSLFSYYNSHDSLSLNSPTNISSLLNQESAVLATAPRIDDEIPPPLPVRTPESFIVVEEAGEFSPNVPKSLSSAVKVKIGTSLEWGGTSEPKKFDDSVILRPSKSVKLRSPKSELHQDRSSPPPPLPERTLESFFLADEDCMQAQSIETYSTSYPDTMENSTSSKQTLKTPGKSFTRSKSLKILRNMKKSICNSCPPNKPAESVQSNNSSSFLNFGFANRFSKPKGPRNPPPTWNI

[3] = molecular target: T3, Tyrosine-protein phosphatase non-receptor type 7 (Homo sapiens, UniProt P35236); assay: redox-active compounds inhibiting HePTP phosphatase – biochemical, fluorescence, mechanism study (AID 2068)
T3 sequence (P35236 whole entry): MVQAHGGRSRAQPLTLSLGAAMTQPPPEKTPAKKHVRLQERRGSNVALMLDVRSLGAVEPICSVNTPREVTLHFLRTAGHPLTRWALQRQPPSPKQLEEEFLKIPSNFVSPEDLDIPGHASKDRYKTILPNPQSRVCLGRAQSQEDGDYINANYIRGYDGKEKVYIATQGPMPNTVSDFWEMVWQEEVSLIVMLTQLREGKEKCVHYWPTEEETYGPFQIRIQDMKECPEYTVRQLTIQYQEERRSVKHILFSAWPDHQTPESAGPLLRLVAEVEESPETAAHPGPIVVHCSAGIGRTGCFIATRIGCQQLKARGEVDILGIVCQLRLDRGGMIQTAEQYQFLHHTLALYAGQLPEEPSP

[4] = molecular target: T2, Tyrosine-protein phosphatase non-receptor type 22; assay: SAR LYP1 Fluorescent Assay using OMFP substrate for In Vitro dose response studies - Set 3. [Related pubchem assays (depositor defined):AID1779, AID1784, AID2140, AID2686]
[5] = molecular target: T4, Dual specificity protein phosphatase 3 (Homo sapiens, UniProt P51452); assay: SAR VHR1 Fluorescent Assay for In Vitro dose response studies Set 2. [Related pubchem assays (depositor defined):AID1654, AID1661, AID1878]
[6] = molecular target: T4, Dual specificity protein phosphatase 3; assay: VHR phosphatase inhibition, dose response, selectivity assay for STEP inhibitor project, biochemical (AID 602374); details: read-out: IC50_Mean
[7] = molecular target: Tyrosine-protein phosphatase non-receptor type 5 (Homo sapiens, UniProt P54829); assay: PTPN5 enzyme inhibition – biochemical, fluorescence intensity, uHTS hits, confirmation (AID 602372); details: read-out: IC50_Mean
[8] = molecular target: Tyrosine-protein phosphatase non-receptor type 12 (Homo sapiens, UniProt Q05209); assay: SAR Selectivity Analysis of small molecule inhibitors of PEST using pCAP in a fluorescence assay. [Related pubchem assays (depositor defined):AID1779, AID1784, AID2135]
[9] = molecular target: Tyrosine-protein phosphatase non-receptor type 11 (Homo sapiens, UniProt Q06124); assay: PTPN11 enzyme inhibitors – biochemical, selectivity assay for STEP inhibitor project, dose response (AID 602367); details: read-out: IC50_Mean
[10] = molecular target: T3, Tyrosine-protein phosphatase non-receptor type 7; assay: inhibition of hematopoietic tyrosine phosphatase HePTP – biochemical, set 2, SAR follow-up (AID 449736)
[11] = molecular target: T2, Tyrosine-protein phosphatase non-receptor type 22; assay: inhibition of lymphoid tyrosine phosphatase LYP – biochemical, pCAP fluorogenic substrate, fluorescence, set 3, SAR follow-up (AID 449727)
[12] = molecular target: Intestinal-type alkaline phosphatase (Homo sapiens, UniProt P09923); assay: activation of human intestinal alkaline phosphatase – biochemical, dose response (AID 488873)
[13] = molecular target: Intestinal-type alkaline phosphatase (Mus musculus, UniProt P24822); assay: mouse intestinal alkaline phosphatase activators, dose response, biochemical, luminescence, uHTS hits (AID 488783)
[14] = molecular target: T5, Alkaline phosphatase, tissue-nonspecific isozyme (Homo sapiens, UniProt P05186); assay: activation of tissue-nonspecific alkaline phosphatase – biochemical, TNAP isozyme, mouse IAP uHTS hits, selectivity assay for mouse IAP activator project, dose response (AID 488880)
T5 sequence (P05186 whole entry): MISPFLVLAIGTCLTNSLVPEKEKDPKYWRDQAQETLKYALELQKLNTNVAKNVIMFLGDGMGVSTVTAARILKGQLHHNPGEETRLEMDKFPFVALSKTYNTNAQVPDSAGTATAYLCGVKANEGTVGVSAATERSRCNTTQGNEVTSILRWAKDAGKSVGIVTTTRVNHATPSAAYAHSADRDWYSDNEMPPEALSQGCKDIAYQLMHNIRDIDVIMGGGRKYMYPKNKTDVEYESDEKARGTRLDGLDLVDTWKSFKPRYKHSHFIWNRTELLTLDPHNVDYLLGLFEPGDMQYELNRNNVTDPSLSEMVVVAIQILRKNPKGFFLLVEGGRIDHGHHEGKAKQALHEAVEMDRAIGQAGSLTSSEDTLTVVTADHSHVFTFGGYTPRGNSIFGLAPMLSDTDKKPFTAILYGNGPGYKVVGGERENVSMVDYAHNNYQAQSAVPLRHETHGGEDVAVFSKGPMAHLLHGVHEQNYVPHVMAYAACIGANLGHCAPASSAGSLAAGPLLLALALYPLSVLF

T4 sequence (P51452 whole entry): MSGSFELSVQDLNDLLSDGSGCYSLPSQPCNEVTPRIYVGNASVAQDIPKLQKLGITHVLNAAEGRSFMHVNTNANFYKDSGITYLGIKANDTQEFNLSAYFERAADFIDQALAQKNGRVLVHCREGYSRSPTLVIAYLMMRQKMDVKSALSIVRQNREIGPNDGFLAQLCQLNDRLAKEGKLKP
Sequence of Intestinal-type alkaline phosphatase (Mus musculus, UniProt P24822) (P24822 whole entry): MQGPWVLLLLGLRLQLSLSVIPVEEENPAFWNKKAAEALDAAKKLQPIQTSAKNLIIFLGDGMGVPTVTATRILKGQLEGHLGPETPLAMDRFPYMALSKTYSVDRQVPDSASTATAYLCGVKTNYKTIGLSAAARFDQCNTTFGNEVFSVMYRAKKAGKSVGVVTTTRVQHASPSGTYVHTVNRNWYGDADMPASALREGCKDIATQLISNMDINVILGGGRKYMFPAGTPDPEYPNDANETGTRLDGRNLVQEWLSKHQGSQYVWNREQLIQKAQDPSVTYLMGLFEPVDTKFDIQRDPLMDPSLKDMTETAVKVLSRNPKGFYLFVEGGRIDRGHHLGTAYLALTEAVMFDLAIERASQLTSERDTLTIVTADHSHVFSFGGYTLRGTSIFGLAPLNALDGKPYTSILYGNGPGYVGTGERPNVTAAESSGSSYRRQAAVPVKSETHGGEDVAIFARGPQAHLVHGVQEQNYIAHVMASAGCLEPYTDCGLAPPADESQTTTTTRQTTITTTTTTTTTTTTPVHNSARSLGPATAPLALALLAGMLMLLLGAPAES
Sequence of Tyrosine-protein phosphatase non-receptor type 12 (Q05209 whole entry): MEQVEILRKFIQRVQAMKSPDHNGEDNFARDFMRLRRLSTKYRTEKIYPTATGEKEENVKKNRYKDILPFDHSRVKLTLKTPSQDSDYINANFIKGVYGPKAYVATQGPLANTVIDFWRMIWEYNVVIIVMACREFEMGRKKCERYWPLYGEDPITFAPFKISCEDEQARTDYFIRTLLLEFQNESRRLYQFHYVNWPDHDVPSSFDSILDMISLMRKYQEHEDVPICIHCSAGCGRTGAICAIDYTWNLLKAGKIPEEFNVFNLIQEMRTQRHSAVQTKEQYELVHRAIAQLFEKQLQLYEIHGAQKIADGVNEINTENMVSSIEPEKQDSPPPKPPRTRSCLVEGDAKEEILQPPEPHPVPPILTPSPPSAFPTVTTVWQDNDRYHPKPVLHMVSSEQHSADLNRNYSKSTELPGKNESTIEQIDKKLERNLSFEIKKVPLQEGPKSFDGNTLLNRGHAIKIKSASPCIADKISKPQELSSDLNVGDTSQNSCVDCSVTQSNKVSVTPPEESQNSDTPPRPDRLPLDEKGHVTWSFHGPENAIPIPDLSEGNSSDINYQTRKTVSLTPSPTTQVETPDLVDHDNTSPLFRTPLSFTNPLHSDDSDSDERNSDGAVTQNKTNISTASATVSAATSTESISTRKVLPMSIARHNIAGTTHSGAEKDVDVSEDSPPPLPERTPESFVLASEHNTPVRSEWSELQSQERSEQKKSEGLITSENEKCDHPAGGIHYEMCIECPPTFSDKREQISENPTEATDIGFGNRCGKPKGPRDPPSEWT
Sequence of Intestinal-type alkaline phosphatase (Homo sapiens, UniProt P09923) (P09923 whole entry): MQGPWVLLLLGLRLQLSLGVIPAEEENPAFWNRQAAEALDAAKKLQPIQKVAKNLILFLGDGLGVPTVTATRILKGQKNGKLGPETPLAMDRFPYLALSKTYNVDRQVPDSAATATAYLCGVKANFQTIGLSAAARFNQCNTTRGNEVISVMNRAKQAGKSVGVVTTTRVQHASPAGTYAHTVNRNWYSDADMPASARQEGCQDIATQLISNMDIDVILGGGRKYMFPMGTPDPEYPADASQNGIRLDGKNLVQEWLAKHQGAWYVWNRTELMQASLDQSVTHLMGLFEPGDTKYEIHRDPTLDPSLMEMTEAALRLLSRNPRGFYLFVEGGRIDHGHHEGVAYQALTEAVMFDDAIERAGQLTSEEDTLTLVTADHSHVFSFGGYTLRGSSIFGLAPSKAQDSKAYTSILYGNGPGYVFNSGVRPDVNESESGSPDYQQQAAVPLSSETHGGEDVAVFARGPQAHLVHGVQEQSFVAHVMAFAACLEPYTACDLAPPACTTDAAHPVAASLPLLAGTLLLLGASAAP
Sequence of Tyrosine-protein phosphatase non-receptor type 5 (P54829 whole entry): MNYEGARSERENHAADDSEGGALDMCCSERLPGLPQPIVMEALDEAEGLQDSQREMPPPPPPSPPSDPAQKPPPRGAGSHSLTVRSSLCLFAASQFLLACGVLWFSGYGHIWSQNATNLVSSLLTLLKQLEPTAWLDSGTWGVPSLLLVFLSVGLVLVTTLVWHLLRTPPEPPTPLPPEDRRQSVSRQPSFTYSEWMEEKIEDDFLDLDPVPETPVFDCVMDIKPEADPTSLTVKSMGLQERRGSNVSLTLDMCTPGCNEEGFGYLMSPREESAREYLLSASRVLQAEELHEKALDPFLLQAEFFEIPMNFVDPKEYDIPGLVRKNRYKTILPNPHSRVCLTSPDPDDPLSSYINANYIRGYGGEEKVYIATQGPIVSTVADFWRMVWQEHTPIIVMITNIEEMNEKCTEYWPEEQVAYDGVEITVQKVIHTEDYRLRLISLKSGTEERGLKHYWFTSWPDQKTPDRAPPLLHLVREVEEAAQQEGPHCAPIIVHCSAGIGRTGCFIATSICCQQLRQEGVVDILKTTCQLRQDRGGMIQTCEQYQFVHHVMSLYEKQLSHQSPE

Row | EC50 [12] | EC50 [13] | EC50 [14] | Compound | IC50 [1] | IC50 [2] | IC50 [3] | IC50 [4] | IC50 [5] | IC50 [6] | IC50 [7] | IC50 [8] | IC50 [9] | IC50 [10] | IC50 [11]
1 | – | – | – | CCc1ccc(NC2=NC(=O)/C(=C/c3ccc(OCC(=O)O)cc3)S2)cc1 | > 100 µM (inactive) | > 100 µM (inactive) | 4.53 µM (active) | 31.7 µM (active) | 18.9 µM (active) | 10.4 µM (active) | 24.3 µM (inactive) | 12.6 µM (active) | 9.52 µM (active) | 3.25 µM (active) | 12.9 µM (active)
2 | 72.1 µM (active) | 64.1 µM (active) | 74.5 µM (active) | Nc1cc2nc3ccccc3oc-2cc1=O | – | – | – | – | – | – | – | – | – | – | –
